Results from US20220265626A1, “THE SERPINB3 INHIBITOR PIPERIDINPROPIONIC ACID FOR TUMOR TREATMENT” (UNIVERSITA' DEGLI STUDI DI PADOVA, priority 2019, published 2022).

Columns and labels:
[1] = system: HepG2/SB3 and HepG2/CTR cells; test: Cell viability by MTT assay with antitumor drugs in the absence or presence of PPA; format: cell-based; settings: for Resistance/sensitivity to drug-induced cell death, HepG2/SB3 compared with HepG2/CTR: drug 10 μM, without PPA
Experimental: The SeprinB3 molecule is known to induce resistance to chemotherapy treatment. In order to evaluate whether the inhibition of said molecule is able to increase the therapeutic efficacy of antitumor drugs, HepG2 cells stably transfected to overexpress SerpinB3 (HepG2/SB3) and HepG2 cells transfected with only the empty plasmid (HepG2/CTR) have been incubated with several antitumor drugs at a concentration of 10 μM (Cisplatin, Sorafenib, 5-Fluorouracil, Methotrexate) in the absence or presence of PPA. […] The results are expressed as a percentage of viability compared to cells incubated with only medium (CTR).

[2] = system: HepG2 liver tumor derived cells (HB8065); test: Real-time cell proliferation / cellular toxicity (xCELLigence, Normalized Cell Index); format: cell-based; settings: monitored for over 60 hours
Experimental: HepG2 liver tumor derived cells (HB8065), incubated with increasing concentrations of 1′-Piperidin propionic acid (PPA) in a range of 5 -50 μg/ml were used and real-time cell proliferation was analysed, using xCELLigence instrument (ACEA Biosciences, Inc., San Diego, Calif., USA), according to the supplier's instructions. In each well of an E-16 plate, 4×10^4 HepG2 cells (HB8065) were seeded in quadruplicate, cultured in complete MEM medium (Sigma-Aldrich, Milan, Italy) supplemented with 10% fetal calf serum (Sigma-Aldrich, Milan, Italy), 100 U/mL of penicillin, 100 μg/ml of streptomycin, and 20 mM L-glutamine (Sigma-Aldrich, Milan, Italy) and 1% of MEM Non Essential Amino Acids. The cells were kept in an incubator at 37° C. with 95% humidity and 5% CO2 saturation. The complete medium was used as a control. The RTCA system monitored the electrical impedance, which is directly proportional to the number of cells present per well, indicated as Cell Index every 5 min for over 60 hours. The cell proliferation curves were analysed with the RTCA software and expressed as the Normalized Cell Index at the time of the treatment with PPA, an arbitrary unit corresponding to the number of cells present per well.
It should be noted that said concentration (5 μg/ml) is markedly higher than the biologically active PPA concentrations, whose normal range of use was 10-100 ng/ml.

SerpinB3 = SerpinB3 mRNA expression by real-time PCR (induced by exogenous SerpinB3 in THP-1 and HT29; constitutive in OE33 and HepG2/SB3); format: cell-based
Experimental: PPA was added in culture at a concentration of 1-100 ng/ml alone or in combination with recombinant SerpinB3 (SB3) at a concentration of 20-200 ng/ml to the cells, while only culture medium was added to the control wells. After 24 hours of treatment, the cells were collected by scraper and the extraction of total cell RNA and reverse transcription were performed according to standard protocols. SerpinB3 mRNA levels were measured by real-time PCR (sense: 5′-[…]-3′ (SEQ ID NO:1); reverse 5′-[…]-3′ (SEQ ID NO:2)).
They were seeded in 6-well plates and kept for 24 hours before treatment, each in its own complete culture medium in (Sigma-Aldrich, Milan, Italy). PPA (1′-piperidin propionic acid) was then added at a concentration of 10-100 ng/ml in PBS.
It should be noted that concentrations of 1-10 ng/ml are already able to reduce the synthesis of SerpinB3 by about 50%.

[3] = system: THP-1 cells of monocytic origin; test: Real-time proliferation of THP-1 cells stimulated with exogenous SerpinB3 (xCELLigence); format: cell-based; settings: THP-1 cells with exogenous SerpinB3 20 ng/ml, PPA 1 ng/ml, 10 ng/ml, 10 μg/ml, up to 120 hours
Experimental: To evaluate cell proliferation in real time, the xCELLigence instrument (ACEA Biosciences, Inc., San Diego, Calif., USA) was used, as described in Example 1. THP-1 cells of monocytic origin were used, whose incubation with exogenous recombinant SerpinB3 (20 ng/ml) had induced a marked increase in the synthesis of endogenous SerpinB3, as reported in Example 2. A suspension of […] cells in quadruplicate was seeded in each well of an E-16 plate, cultured in complete RPMI medium (Sigma-Aldrich, Milan, Italy). The cells incubated with SerpinB3 alone or in the presence of PPA (1 ng/ml-10ng/ml-10 μg/ml) were monitored for up to 120 hours by the xCELLigence instrument and the cell proliferation curves shown in FIG. 3 were processed and expressed by the RTCA software as the Normalized Cell Index.

CCL15 and PD-L1 = test: Expression of SerpinB3-induced cytokines in THP-1 cells; format: cell-based; settings: PPA 1 ng/ml
Text: It has been documented that SerpinB3, in addition to inducing resistance to cell death and increased proliferation, is able to induce a reduction in tumor immunosurveillance, in particular through the increased production of cytokines such as CCL15, recently involved in the reduction of immune surveillance in hepatocellular carcinoma, and the immune checkpoint molecule PD-L1, towards which several new antitumor drugs are directed.

MDR1 and MDR2 genes = test: Multidrug resistance gene expression by real time PCR; format: cell-based; settings: HepG2/SB3 cells, PPA 10 and 100 ng/ml, 24 hours
Experimental: In order to understand more fully whether the resistance to chemotherapeutic drugs induced by SerpinB3 is exclusively linked to the increased resistance to cell death following the reduced activation of the mitochondrial proapoptotic cascade, the genes involved in multiple resistance to chemotherapeutic drugs have been analysed (multidrug resistance, MDR). In particular, HepG2/SB3 and HepG2 control cells (HepG2/empty) were collected after 24 hours of treatment with PPA at the doses of 10 ng/ml and 100 ng/ml and the gene expression was analysed as follows: MDR 1, MDR 2, MRP1, MRP2, MRP3, GSTP1 by real time PCR according to standard protocols.

[4] = system: tumor development in the liver; test: DEN plus CDAA diet mouse model of obesity-associated carcinogenesis; format: in vivo
Text: To better assess the role of SerpinB3 in carcinogenesis, a mouse model of obesity-associated carcinogenesis that requires a single administration of diethyl-nitrosamine (DEN) has been developed in mice with different expression of SerpinB3. The study has been performed in mice transgenic for human SerpinB3 (SerpinB3/TG) (the initial colony was kindly provided by Prof. Cassani, Tecnogen, Caserta, Italy) and in SerpinB3 knockout mice (SerpinB3/KO) (the initial colony was kindly provided by Dr. Gary Silverman and Dr. Cliff J. Luke, University of Pittsburg, Children's Hospital, Pittsburg, Pa.). Moreover wild type mice of similar age were used as controls. All animals were bred and maintained with free access to pellet food and water at the Animal Care Facility of the Experimental Surgery Division of the University of Padua.
Mice were injected with (DEN, 25 mg/kg i.p.) at the age of 2 weeks. These mice were fed at the age of 6 weeks with a choline-deficient L-amino acid-defined (CDAA) diet and part of them were sacrificed after […], while the remaining mice were sacrificed after […]. Two groups of control mice were also treated or not with PPA (weekely intraperitoneal injection of 50 ng/g of body weight) during CDAA diet. The experimental protocol was approved by the local Ethical Committee and by the Italian Ministry of Health (Authorization N. 442/2018-PR).

O=c1[nH]cc(F)c(=O)[nH]1 [5-Fluorouracil, reference compound]
Resistance/sensitivity to drug-induced cell death, HepG2/SB3 compared with HepG2/CTR [1]: not different

N.N.[Cl][Pt][Cl] [Cisplatin, reference compound]
Resistance/sensitivity to drug-induced cell death, HepG2/SB3 compared with HepG2/CTR [1]: greater resistance to cell death

CN(Cc1cnc2nc(N)nc(N)c2n1)c1ccc(C(=O)N[C@@H](CCC(=O)O)C(=O)O)cc1 [Methotrexate, reference compound]
Resistance/sensitivity to drug-induced cell death, HepG2/SB3 compared with HepG2/CTR [1]: not different

O=C(O)CCN1CCCCC1 [PPA, 3-(1-piperidinyl)propanoic acid]
PPA concentration up to which no cellular toxicity is observed ([2]; PPA 5-50 μg/ml): up to 5 μg/ml | PPA doses at which cellular toxicity is highlighted (curves below the control curve) [2]: 25 to 50 µg/mL | Constitutive SerpinB3 expression (SerpinB3; OE33 and HepG2/SB3 cells, PPA 10-100 ng/ml): reduces in a dose-dependent manner | Reduction of the synthesis of SerpinB3 (SerpinB3; PPA concentrations of 1-10 ng/ml): about 50% | SerpinB3 expression induced by exogenous treatment (SerpinB3; THP-1 and HT29 cells, PPA 1-100 ng/ml with recombinant SerpinB3 20-200 ng/ml, 24 hours): reduces in a dose-dependent manner | Proliferative activity (Normalized Cell Index) [3]: reduction of the proliferative activity which has proved to be dose-dependent | CCL15 level after stimulation with exogenous SerpinB3 (CCL15 and PD-L1): markedly reduced | PD-L1 level after stimulation with exogenous SerpinB3 (CCL15 and PD-L1): markedly reduced | Viability of cells with high levels of SerpinB3 treated with 5-Fluorouracil, on addition of PPA ([1]; HepG2/SB3, 5-Fluorouracil 10 μM): significant reduction of viability | Viability of cells with high levels of SerpinB3 treated with Cisplatin, on addition of PPA ([1]; HepG2/SB3, Cisplatin 10 μM): significant reduction of viability | Viability of cells with high levels of SerpinB3 treated with Methotrexate, on addition of PPA ([1]; HepG2/SB3, Methotrexate 10 μM): did not change | Viability of cells with high levels of SerpinB3 treated with Sorafenib, on addition of PPA ([1]; HepG2/SB3, Sorafenib 10 μM): significant reduction of viability | MDR1 gene expression (MDR1 and MDR2 genes): reduction of their expression in a dose-dependent manner | MRD2 gene expression (MDR1 and MDR2 genes): reduction of their expression in a dose-dependent manner | Tumor formation compared with mice that did not receive the compound ([4]; control (wild type) mice, DEN 25 mg/kg i.p. then CDAA diet, PPA weekly i.p. 50 ng/g body weight, preliminary results): remarkable reduction of tumor formation | Tolerability in the experimental model ([4]; experimental model): well tolerated

CNC(=O)c1cc(Oc2ccc(NC(=O)Nc3ccc(Cl)c(C(F)(F)F)c3)cc2)ccn1 [Sorafenib, reference compound]
Resistance/sensitivity to drug-induced cell death, HepG2/SB3 compared with HepG2/CTR [1]: greater resistance to cell death
